Source: US4695569A, “Bicyclic heterocyclyl containing N-(bicyclic heterocyclyl)-4-piperidinamines” (Janssen Pharmaceutica N.V., priority 1987, dated 1987)
Where two headings read alike, the source gives them in different places.

Experiments:
[1] = test system: serotonin; experiment: Antagonistic activity on the effects of serotonin in the gastric lesion test (lesions induced by compound 48/80); format: in vivo, rat (male, Wistar inbred strain)
Description: The compounds of formula (I) and the pharmaceutically acceptable acid addition salts thereof are also potent serotonin-antagonists. The potency of the subject compounds as serotonin-antagonists is clearly evidenced by the results obtained in the following tests wherein the antagonistic activity of the subject compounds on the effect of serotonin is examined.
Antagonistic activity on the effects of serotonin in the gastric lesion test
Comound 48/80 (a mixture of oligomers obtained by condensation of 4-methoxy-N-methylbenzeneethanamine and formaldehyde) is a potent releaser of vasoactive amines from endogenous stores such as, for example, histamine and serotonin. […] The shock, followed by dead, can be avoided if the rats are pretreated with a classical H 1 antagonist.
Male rats of a Wistar inbred strain, weighing 220-250 g, were starved overnight, water being available ad libitum. The test compounds were administered orally as a solution or as a suspension in aqueous medium. A control rat and a "blank" rat received the test compound. One hour later 5-[4-(diphenylmethyl)-1-piperazinylmethyl]-1-methyl-1H-benzimidazole-2-methanol was administered subcutaneously to all rats at the dose of 2.5 mg/kg.
Four hours after the intravenous injection of compound 48/80, the rats were decapitated and the stomachs were removed. Subsequently the stomachs ere inspected for distension and contents (blood, fluid, food) and thoroughly rinsed. The macroscopic lesions were scored from 0 to +++, 0 corresponding to complete absence of visible lesions and the highest score corresponding to reddish rough patches covering more than half the glandular area.

[2] = test system: compound 48/80-induced lethality; experiment: Protection of rats from compound 48/80-induced lethality; format: in vivo, rat (male, inbred Wistar strain); details: Rattus norvegicus, 4 h, read-out: Compound 48/80 lethality test in rats-ED50
Procedure: Protection of rats from compound 48/80-induced lethality
The protection from compound 48/80-induced lethal circulatory collapse appears to be a simple way of evaluating quantitatively the antihistaminic activity of test compounds. Male rats of an inbred Wistar strain, weighing 240-260 g were used in the experiment. After overnight starvation the rats were transferred to conditioned laboratories (temp.=21±1° C., relative humidity=65±5%).
The rats were treated subcutaneously or orally with a test compound or with the solvent (NaCl solution, 0.9%). […] Survival after 4 hours is therefore considered to be a safe criterion of a protective effect of drug administration.
The ED50 -values of the compounds of formula (I) are listed in the first column of table 1. Said ED50 -values are the values in mg/kg body weight at which the tested compounds protect 50% of the tested animals against compound 48/80-induced lethality.

[3] = Rattus norvegicus, po, 4 h; read-out: gastric lesion test ED50 (distension of the stomach and lesions in the glandular area completely absent in 50% of rats)
[4] = Rattus norvegicus, po, 4 h, read-out: gastric lesion test ED50 (distension of the stomach and lesions in the glandular area completely absent in 50% of rats)

Compound	ED50 [1, 3]	ED50 [2]	ED50 [1, 4]
Cc1nc2scc(C)n2c(=O)c1CCN1CCC(Nc2nc3ccccc3n2Cc2ccc(F)cc2)CC1 [Compound 1, 6-[2-[4-[[1-[(4-fluorophenyl)methyl]-1H-benzimidazol-2-yl]amino]-1-piperidinyl]ethyl]-3,7-dimethyl-5H-thiazolo[3,2-a]pyrimidin-5-one]	0.63 mg/kg	0.31 mg/kg	
Cc1nc2ccccn2c(=O)c1CCN1CCC(Nc2nc3ccccc3n2Cc2ccc(F)cc2)CC1 [Compound 4]		0.16 mg/kg	0.31 mg/kg
Cc1nc2ccccn2c(=O)c1CCN1CCC(Nc2nc3ccccc3n2Cc2ccco2)CC1 [Compound 5]	0.04 mg/kg	0.16 mg/kg	
Cc1nc2ccccn2c(=O)c1CCN1CCC(Nc2nc3cccnc3n2Cc2ccco2)CC1 [Compound 6]	0.63 mg/kg	0.08 mg/kg	
Cc1nc2scc(C)n2c(=O)c1CCN1CCC(Nc2nc3cccnc3n2Cc2ccc(F)cc2)CC1 [Compound 7]	0.31 mg/kg	0.04 mg/kg	
Cn1cnc2c1c(=O)n(CCN1CCC(Nc3nc4ccccc4n3Cc3ccc(F)cc3)CC1)c(=O)n2C [Compound 8]		0.16 mg/kg	0.63 mg/kg
Cc1nc2scc(C)n2c(=O)c1CCN1CCC(Nc2nc3ccccc3n2Cc2ccco2)CC1 [Compound 9]	0.16 mg/kg	0.08 mg/kg	
Cc1nc2scc(C)n2c(=O)c1CCN1CCC(Nc2nc3cccnc3n2Cc2ccco2)CC1 [Compound 10]	0.16 mg/kg	0.08 mg/kg	
Cn1cnc2c1c(=O)n(CCN1CCC(Nc3nc4ccccc4n3Cc3ccco3)CC1)c(=O)n2C [Compound 11]	0.04 mg/kg	0.08 mg/kg	
Cn1cnc2c1c(=O)n(CCN1CCC(Nc3nc4cccnc4n3Cc3ccc(F)cc3)CC1)c(=O)n2C [Compound 12]		0.16 mg/kg	0.31 mg/kg
Cc1nc2n(c(=O)c1CCN1CCC(Nc3nc4ccccc4n3Cc3ccco3)CC1)CCCS2 [Compound 13]	0.08 mg/kg	0.02 mg/kg	
Cc1nc2n(c(=O)c1CCN1CCC(Nc3nc4cccnc4n3Cc3ccco3)CC1)CCCS2 [Compound 14]		0.02 mg/kg	
Cc1nc2n(c(=O)c1CCN1CCC(Nc3nc4ccccc4n3Cc3ccc(F)cc3)CC1)CCCS2 [Compound 15]	0.31 mg/kg	0.16 mg/kg	
Cc1nc2n(c(=O)c1CCN1CCC(Nc3nc4cccnc4n3Cc3ccc(F)cc3)CC1)CCCS2 [Compound 16]		0.16 mg/kg	
Cc1nc2n(c(=O)c1CCN1CCC(Nc3nc4ccccc4n3Cc3ccc(F)cc3)CC1)CCS2 [Compound 17]	0.63 mg/kg	0.31 mg/kg	
Cc1nc2n(c(=O)c1CCN1CCC(Nc3nc4ccccc4n3Cc3ccco3)CC1)CCS2 [Compound 18]	0.16 mg/kg	0.08 mg/kg	
Cc1nc2ccccn2c(=O)c1CCN1CCC(Nc2nc3ccccc3n2Cc2cscn2)CC1 [Compound 19]	0.01 mg/kg	0.08 mg/kg	
Cc1ccc2nc(C)c(CCN3CCC(Nc4nc5cccnc5n4Cc4ccco4)CC3)c(=O)n2c1 [Compound 20]	0.63 mg/kg	0.04 mg/kg	
Cc1nc2ccc(Cl)cn2c(=O)c1CCN1CCC(Nc2nc3cccnc3n2Cc2ccco2)CC1 [Compound 21]	0.63 mg/kg	0.04 mg/kg	
Cc1nc2ccccn2c(=O)c1CCN1CCC(Nc2nc3cccnc3n2Cc2ccc(F)cc2)CC1.Cl.Cl [Compound 22, 3-[2-[4-[[3-[(4-fluorophenyl)methyl]-3H-imidazo[4,5-b]-pyridin-2-yl]amino]-1-piperidinyl]ethyl]-2-methyl-4H-pyrido[1,2-a]pyrimidin-4-one dihydrochloride]		0.16 mg/kg	
O=c1[nH]c2ccccc2c(=O)n1CCN1CCC(Nc2nc3cccnc3n2Cc2ccc(F)cc2)CC1 [Compound 25]		0.16 mg/kg	
O=c1[nH]c2ccccc2c(=O)n1CCN1CCC(Nc2nc3cccnc3n2Cc2ccco2)CC1 [Compound 26]		0.08 mg/kg	
Cc1nc2sccn2c(=O)c1CCN1CCC(Nc2nc3ccccc3n2Cc2ccc(F)cc2)CC1 [Compound 27]		0.08 mg/kg	
O=c1[nH]c2ccccc2c(=O)n1CCCN1CCC(Nc2nc3ccccc3n2Cc2ccco2)CC1 [Compound 30]		0.16 mg/kg	
O=c1[nH]c2ccccc2c(=O)n1CCCN1CCC(Nc2nc3cccnc3n2Cc2ccco2)CC1 [Compound 32]		0.04 mg/kg	

Compound	ED50 [1, 3]	ED50 [2]	ED50 [1, 4]
Cn1c(=O)n(CCN2CCC(Nc3nc4cccnc4n3Cc3ccco3)CC2)c(=O)c2ccccc21 [Compound 35]		0.02 mg/kg	
Cn1c(=O)n(CCN2CCC(Nc3nc4cccnc4n3Cc3ccc(F)cc3)CC2)c(=O)c2ccccc21 [Compound 36]		0.16 mg/kg	
O=c1[nH]c2ccccc2c(=O)n1CCCN1CCC(Nc2nc3cccnc3n2Cc2ccc(F)cc2)CC1 [Compound 37]		0.16 mg/kg	
Cn1c(=O)c2c(ncn2CCN2CCC(Nc3nc4cccnc4n3Cc3ccco3)CC2)n(C)c1=O [Compound 42]		0.16 mg/kg	
Cn1c(=O)c2c(ncn2CCN2CCC(Nc3nc4cccnc4n3Cc3ccc(F)cc3)CC2)n(C)c1=O [Compound 43]		0.16 mg/kg	
Cc1nc2n(c(=O)c1CCN1CCC(Nc3nc4ccccc4n3Cc3ccco3)CC1)CCCC2 [Compound 44]		0.16 mg/kg	
Cc1nc2n(c(=O)c1CCN1CCC(Nc3nc4ccccc4n3Cc3ccc(F)cc3)CC1)CCCC2 [Compound 45]		0.08 mg/kg	
Cc1nc2n(c(=O)c1CCN1CCC(Nc3nc4cccnc4n3Cc3ccco3)CC1)CCS2 [Compound 48]		0.08 mg/kg	
Cc1nc2n(c(=O)c1CCN1CCC(Nc3nc4cccnc4n3Cc3ccco3)CC1)C(C)CCC2 (stereo not drawn) [Compound 54]		0.31 mg/kg	
Cc1nc2n(c(=O)c1CCN1CCC(Nc3nc4ccccc4n3Cc3ccccn3)CC1)CCCC2 [Compound 57]		0.16 mg/kg	
Cc1nc2ccccn2c(=O)c1CCN1CCC(Nc2nc3ccccc3n2Cc2cnccn2)CC1 [Compound 68, 2-methyl-3-[2-[4-[[1-(2-pyrazinylmethyl)-1H-benzimidazol-2-yl]amino]-1-piperidinyl]ethyl]-4H-pyrido[1,2-a]pyrimidin-4-one]		0.08 mg/kg	
Cc1nc2n(c(=O)c1CCN1CCC(Nc3nc4ccccc4n3Cc3ccc(Cl)cc3)CC1)CCCC2 [Compound 69]		0.16 mg/kg	
Cc1nc2cccc(C)n2c(=O)c1CCN1CCC(Nc2nc3cccnc3n2Cc2ccco2)CC1 [Compound 75]		0.01 mg/kg	
Cc1nc2ccc(Br)cn2c(=O)c1CCN1CCC(Nc2nc3cccnc3n2Cc2ccco2)CC1 [Compound 76]		0.08 mg/kg	
Cc1nc2ccccn2c(=O)c1CCN1CCC(Nc2nc3ccncc3n2Cc2ccc(F)cc2)CC1 [Compound 79]		0.16 mg/kg	
Cc1nc2c(NCCN3CCC(Nc4nc5ccccc5n4Cc4ccc(F)cc4)CC3)ncnc2n1C [Compound 96]		0.16 mg/kg	
Cn1cnc2c(NCCN3CCC(Nc4nc5ccccc5n4Cc4ccccc4)CC3)ncnc21 [Compound 100]		0.16 mg/kg	
Cn1cnc2c(NCCN3CCC(Nc4nc5cc(O)ccc5n4Cc4ccc(F)cc4)CC3)ncnc21 [Compound 102]		0.08 mg/kg	
Fc1ccc(Cn2c(NC3CCN(CCOc4nc5cccnc5s4)CC3)nc3ccccc32)cc1 [Compound 107, 1-[(4-fluorophenyl)methyl]-N-[1-[2-[(thiazolo[5,4-b]pyridin-2-yl)oxy]ethyl]-4-piperidinyl]-1H-benzimidazol-2-amine]		0.16 mg/kg	
c1ccc(Cn2c(NC3CCN(CCNc4nc5cnccc5[nH]4)CC3)nc3cccnc32)nc1 [Compound 113]		0.04 mg/kg	
O=c1[nH]c2ccccc2c(=O)n1CCCCN1CCC(Nc2nc3ccccc3n2Cc2ccco2)CC1 [Compound 128, 3-[4-[4-[[1-(2-furanylmethyl)-1H-benzimidazol-2-yl]amino]-1-piperidinyl]-butyl]-2,4(1H,3H)-quinazolinedione]		0.08 mg/kg	
O=c1c2ccccc2[nH]c(=S)n1CCN1CCC(Nc2nc3ccccc3n2Cc2ccco2)CC1 [Compound 132, 3-[2-[4-[[1-(2-furanylmethyl)-1H-benzimidazol-2-yl]amino]-1-piperidinyl]ethyl]-2,3-dihydro-2-thioxo-4(1H)-quinazolinone]		0.16 mg/kg	
O=c1[nH]c2c(Cl)ncnc2n1CCN1CCC(Nc2nc3ccccc3n2Cc2ccc(F)cc2)CC1 [Compound 144, 6-chloro-9-[2-[4-[[1-[(4-fluorophenyl)methyl]-1H-benzimidazol-2-yl]amino]-1-piperidinyl]ethyl]-7,9-dihydro-8H-purin-8-one]		0.08 mg/kg	
Fc1ccc(Cn2c(NC3CCN(CCc4cn5cccnc5n4)CC3)nc3ccccc32)cc1 [Compound 151, 1-[(4-fluorophenyl)methyl]-N-[1-[2-(imidazo[3,2-a]pyrimidin-2-yl)ethyl]-4-piperidinyl]-1H-benzimidazol-2-amine]		0.08 mg/kg	
